Laboratory results as given in patent publication US8501400B2, “Methods and compositions for determining the pathogenic status of infectious agents” (priority 2007, dated 2013).

How the values were obtained:
[1] = test system: EMB resistant Mtb strain; type: cell-based; conditions: 16 hr drug treatment, MOI=1, 4 hr post-infection, RT-PCR
[2] = test system: RIF-resistant Mtb strain; type: cell-based; conditions: 16 hr drug treatment, MOI=1, 4 hr post-infection, RT-PCR

With `CC[C@@H](CO)NCCN[C@@H](CC)CO` [EMB, Ethambutol] the “SML generation after drug treatment” value [1] was “not decreased” and the “Reduction in SML generation compared to the untreated control” value [2] was “approximately 10 fold”.
